Source: the supplement of paper PMC10307832

How the values were obtained:
Experiment in all cases: relative viability (nuclei count vs DMSO), 5 days (fraction); higher = more cells survive
AZ3146 + OSI-027 = compound: CN1CCC(CC1)OC2=CC(=C(C=C2)NC3=NC=C4C(=N3)N(C(=O)N4C)C5CCCC5)OC [AZ3146] + COc1cccc2cc(-c3nc([C@H]4CC[C@H](C(=O)O)CC4)n4ncnc(N)c34)[nH]c12 [OSI-027] (partner 0.5 µM)
Method in brief: (§1)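 Lung cancer cell lines, seeded in 1536-well plates, were treated the following day by pin tool with a single drug or with five library-drug doses (not always all listed) in √10 steps on top of a fixed anchor-drug dose. Cells were fixed and nuclei stained in one step after 5 days, and nuclei were counted. Relative viability is the nuclei count for treated wells divided by that for vehicle wells, reported as medians of duplicate plates.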

AZ3146 + Navitoclax = compound: CN1CCC(CC1)OC2=CC(=C(C=C2)NC3=NC=C4C(=N3)N(C(=O)N4C)C5CCCC5)OC [AZ3146] + CC1(C)CCC(c2ccc(Cl)cc2)=C(CN2CCN(c3ccc(C(=O)NS(=O)(=O)c4ccc(N[C@H](CCN5CCOCC5)CSc5ccccc5)c(S(=O)(=O)C(F)(F)F)c4)cc3)CC2)C1 [Navitoclax] (partner 0.5 µM)
Method in brief: as §1

AZ3146 + Pictilisib = compound: CN1CCC(CC1)OC2=CC(=C(C=C2)NC3=NC=C4C(=N3)N(C(=O)N4C)C5CCCC5)OC [AZ3146] + CS(=O)(=O)N1CCN(Cc2cc3nc(-c4cccc5[nH]ncc45)nc(N4CCOCC4)c3s2)CC1 [Pictilisib] (partner 1 µM)
Method in brief: as §1

GSK-J4 + OSI-027 = compound: CCOC(=O)CCNc1cc(N2CCc3ccccc3CC2)nc(-c2ccccn2)n1 [GSK-J4] + COc1cccc2cc(-c3nc([C@H]4CC[C@H](C(=O)O)CC4)n4ncnc(N)c34)[nH]c12 [OSI-027] (partner 0.5 µM)
Method in brief: as §1

**Q.** How did the relative viability (AZ3146 + OSI-027; first compound 0.08 µM) turn out when UMC-11 was run?
**A.** 0.462

**Q.** And the relative viability (AZ3146 + OSI-027; first compound 0.253 µM)?
**A.** 0.46

**Q.** What about the relative viability (AZ3146 + OSI-027; first compound 0.8 µM) of the same cell line?
**A.** 0.425

**Q.** What about the relative viability (AZ3146 + OSI-027; first compound 2.53 µM) of the same cell line?
**A.** 0.475

**Q.** What about the relative viability (AZ3146 + OSI-027; first compound 8 µM) of the same cell line?
**A.** 0.314

**Q.** And the relative viability (AZ3146 + Navitoclax; first compound 0.08 µM)?
**A.** 0.32

**Q.** And the relative viability (AZ3146 + Navitoclax; first compound 0.253 µM)?
**A.** 0.27

**Q.** And the relative viability (AZ3146 + Navitoclax; first compound 0.8 µM)?
**A.** 0.302

**Q.** What about the relative viability (AZ3146 + Navitoclax; first compound 2.53 µM) of the same cell line?
**A.** 0.312

**Q.** What about the relative viability (AZ3146 + Navitoclax; first compound 8 µM) of the same cell line?
**A.** 0.252

**Q.** What about the relative viability (AZ3146 + Pictilisib; first compound 0.08 µM) of the same cell line?
**A.** 0.698

**Q.** And the relative viability (AZ3146 + Pictilisib; first compound 0.253 µM)?
**A.** 0.99

**Q.** What about the relative viability (AZ3146 + Pictilisib; first compound 0.8 µM) of the same cell line?
**A.** 0.706

**Q.** What about the relative viability (AZ3146 + Pictilisib; first compound 2.53 µM) of the same cell line?
**A.** 0.802

**Q.** And the relative viability (AZ3146 + Pictilisib; first compound 8 µM)?
**A.** 0.513

**Q.** What about the relative viability (GSK-J4 + OSI-027; first compound 0.5 µM) of the same cell line?
**A.** 0.474

**Q.** And the relative viability (GSK-J4 + OSI-027; first compound 5 µM)?
**A.** 0.362

**Q.** And the relative viability (GSK-J4 + OSI-027; first compound 15.81 µM)?
**A.** 0.423

**Q.** And the relative viability (GSK-J4 + OSI-027; first compound 50 µM)?
**A.** 0.34
